Laboratory results taken from patent US8883782B2, “Spiro-tetracyclic ring compounds as beta-secretase modulators and methods of use” (Amgen Inc., priority 2010, dated 2014).
Where two headings read alike, the source gives them in different places.

Assays:
[1] = tested on: Aβ40 in conditioned medium of cells stably expressing Amyloid Precursor Protein (APP); assay: In vitro BACE cell-based assay (Aβ40 in conditioned medium, sandwich ELISA); conditions: read-out: HEK cell assay
Summary of the method: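 Secreted Aβ40 is captured with pAb40 and detected with biotinylated 6E10, read by europium time-resolved fluorescence. IC50 comes from percent inhibition versus concentration.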

[2] = molecular target: Beta Secretase enzyme (BACE) (Homo sapiens, UniProt P56817); assay: In vitro enzymatic BACE FRET (fluorescence resonance energy transfer) assay; assay type: biochemical; conditions: average IC50, enzyme assay; read-out: BACE 1 FRET assay
Chain of Beta Secretase enzyme (BACE) (P56817 46-501, species assumed): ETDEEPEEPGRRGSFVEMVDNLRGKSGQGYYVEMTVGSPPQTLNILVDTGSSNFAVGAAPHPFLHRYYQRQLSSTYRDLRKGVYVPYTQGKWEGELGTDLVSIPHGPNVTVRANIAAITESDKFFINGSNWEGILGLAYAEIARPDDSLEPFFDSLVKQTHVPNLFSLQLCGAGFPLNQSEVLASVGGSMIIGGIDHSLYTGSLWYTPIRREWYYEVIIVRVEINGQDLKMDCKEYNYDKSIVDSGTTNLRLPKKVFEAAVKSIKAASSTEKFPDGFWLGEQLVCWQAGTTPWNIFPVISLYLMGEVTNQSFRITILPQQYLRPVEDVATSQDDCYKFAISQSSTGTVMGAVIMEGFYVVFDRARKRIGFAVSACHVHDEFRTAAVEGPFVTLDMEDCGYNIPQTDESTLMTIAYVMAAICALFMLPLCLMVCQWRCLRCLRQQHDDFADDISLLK
Summary of the method: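 Fluorescence read after Tris quench to neutral pH. Reaction: 50 nM fluorophore/quencher peptide substrate, 1 h, in 0.05 M acetate pH 4.2, 10% DMSO final, 100 uM genapol.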

[3] = Homo sapiens, HEK293, average IC50
[4] = Homo sapiens, HEK293, average IC50, HEK cells

Which results are given for COc1cncc(-c2ccc3c(c2)[C@@]2(COC(N)=N2)c2cc(C4=CCOCC4)ccc2O3)c1 [Example 194, (4R)-2′-(3,6-dihydro-2H-pyran-4-yl)-7′-(5-methoxy-3-pyridinyl)spiro[1,3-oxazole-4,9′-xanthen]-2-amine]?
IC50 [1, 3]: 27.4 nM; IC50 [2]: 8 nM

With CC1(/C=C/c2cc(F)c3c(c2)[C@]2(COC(N)=N2)c2cc(-c4cccnc4F)ccc2O3)COC1 [Example 561, (4S)-4′-fluoro-7′-(2-fluoro-3-pyridinyl)-2′-((E)-2-(3-methyl-3-oxetanyl)ethenyl)spiro[1,3-oxazole-4,9′-xanthen]-2-amine] as the compound, how does the IC50 [1, 4] read?
Its IC50 is 3.7 nM.

And the IC50 [2]?
Its IC50 is 2 nM.

With CC(C)(C)C#Cc1cnc2c(c1)[C@@]1(COC(N)=N1)c1c(ccc(-c3cncnc3)c1F)O2 [Example 337, (5S)-3-(3,3-dimethyl-1-butyn-1-yl)-6-fluoro-7-(5-pyrimidinyl)spiro[chromeno[2,3-b]pyridine-5,4′-[1,3]oxazol]-2′-amine] as the compound, how does the IC50 [1, 3] read?
Its IC50 is 535 nM.

What about the IC50 [2] of the same compound?
Its IC50 is 836 nM.

Which IC50 [1, 4] does the source give for NC1=N[C@]2(CS1)c1cc(-c3cccnc3)ccc1Oc1ncc(N3CCOCC3)cc12 [Example 601, (5R)-3-(4-morpholinyl)-7-(3-pyridinyl)spiro[chromeno[2,3-b]pyridine-5,4′-[1,3]thiazol]-2′-amine] here?
The IC50 was 724 nM.

What about the IC50 [2] of the same compound?
The IC50 was 2290 nM.

For NC1=N[C@@]2(CS1)c1cc(-c3cccnc3F)ccc1Oc1cnc(C3=CCOCC3)cc12 [Example 614, (5S)-3-(3,6-dihydro-2H-pyran-4-yl)-7-(2-fluoro-3-pyridinyl)spiro[chromeno[2,3-c]pyridine-5,4′-[1,3]thiazol]-2′-amine], which IC50 ([1]; average IC50, HEK cells) is on record?
The IC50 was 5 nM.

What about the IC50 [2] of the same compound?
The IC50 was 0.3 nM.

What does the source list for NC1=N[C@@]2(CO1)c1cc(-c3cncc(F)c3)ccc1Oc1ncc(C3=CCOCC3)cc12 [Example 457, (5S)-3-(3,6-dihydro-2H-pyran-4-yl)-7-(5-fluoro-3-pyridinyl)spiro[chromeno[2,3-b]pyridine-5,4′-[1,3]oxazol]-2′-amine]?
IC50 [1, 4]: 6.6 nM; IC50 [2]: 1.5 nM

Which IC50 [1, 3] does the source give for CC(C)(C)C#Cc1cc2c(nc1F)Oc1ccc(-c3cccnc3F)cc1C21COC(N)=N1 (stereo not shown) [Example 148, 3-(3,3-dimethyl-1-butyn-1-yl)-2-fluoro-7-(2-fluoro-3-pyridinyl)spiro[chromeno[2,3-b]pyridine-5,4′-[1,3]oxazol]-2′-amine] here?
Its IC50 is 21.4 nM.

What about the IC50 [2] of the same compound?
The IC50 was 0.7 nM.

With NC1=N[C@@]2(CO1)c1cc(-c3cccnc3F)ccc1Oc1cnc(-c3cc(F)nc(F)c3)cc12 [Example 541, (5S)-3-(2,6-difluoro-4-pyridinyl)-7-(2-fluoro-3-pyridinyl)spiro[chromeno[2,3-c]pyridine-5,4′-[1,3]oxazol]-2′-amine] as the compound, how does the IC50 [1, 4] read?
The IC50 was 12.3 nM.

And the IC50 [2]?
The IC50 was 0.4 nM.

N#Cc1cccc(-c2ccc3c(c2)[C@@]2(CSC(N)=N2)c2cc(C4CCOCC4)cnc2O3)c1F [Example 790, 3-((5S)-2′-amino-3-(tetrahydro-2H-pyran-4-yl)spiro[chromeno[2,3-b]pyridine-5,4′-[1,3]thiazol]-7-yl)-2-fluorobenzonitrile] was tested. Which IC50 [1, 3] did it give?
The IC50 was 97 nM.

What about the IC50 [2] of the same compound?
Its IC50 is 14.5 nM.

Which results are given for Cc1cncc(-c2ccc3c(c2)[C@@]2(COC(N)=N2)c2cc(OCC4(C)COC4)c(F)cc2O3)c1 [Example 328, (4S)-3′-fluoro-2′-((3-methyl-3-oxetanyl)methoxy)-7′-(5-methyl-3-pyridinyl)spiro[1,3-oxazole-4,9′-xanthen]-2-amine]?
IC50 [1, 3]: 45.6 nM; IC50 [2]: 23.6 nM

What does the source list for NC1=N[C@@]2(CS1)c1cc(-c3cccnc3)c(F)cc1Oc1c(F)cc(C3=CCCOC3)cc12 [Example 883, (4S)-7′-(5,6-dihydro-2H-pyran-3-yl)-3′,5′-difluoro-2′-(3-pyridinyl)spiro[1,3-thiazole-4,9′-xanthen]-2-amine]?
IC50 [1, 4]: 50 nM; IC50 [2]: 0.3 nM

Which IC50 [1, 3] does the source give for NC1=N[C@@]2(CO1)c1cc(-c3cccnc3O)ccc1Oc1cnc(-c3ccnc(F)c3)cc12 [Example 712, (S)-3-(2′-amino-3-(2-fluoropyridin-4-yl)-5′H-spiro[chromeno[2,3-c]pyridine-5,4′-oxazole]-7-yl)pyridin-2-ol] here?
Its IC50 is 1090 nM.

What about the IC50 [2] of the same compound?
The IC50 was 69.7 nM.

What does the source list for CC1(C)CCCN(c2cnc3c(c2)[C@]2(COC(N)=N2)c2cc(-c4cccnc4F)ccc2O3)C1 [Example 483, (5S)-3-(3,3-dimethyl-1-piperidinyl)-7-(2-fluoro-3-pyridinyl)spiro[chromeno[2,3-b]pyridine-5,4′-[1,3]oxazol]-2′-amine]?
IC50 [1, 4]: 22.3 nM; IC50 [2]: 3.4 nM

Which results are given for NC1=N[C@]2(CO1)c1cc(Br)ccc1Oc1c(F)cc(Cl)nc12 [Example 489, (10R)-8-bromo-2-chloro-4-fluorospiro[chromeno[3,2-b]pyridine-10,4′-[1,3]oxazol]-2′-amine]?
IC50 [1, 4]: 10000 nM; IC50 [2]: 8120 nM

CC1(C)CC(c2ccc3c(c2)[C@]2(COC(N)=N2)c2cc(-c4cncnc4)c(F)cc2O3)=CCO1 [Example 505, (4R)-7′-(2,2-dimethyl-3,6-dihydro-2H-pyran-4-yl)-3′-fluoro-2′-(5-pyrimidinyl)spiro[1,3-oxazole-4,9′-xanthen]-2-amine] was tested. Which IC50 [1, 4] did it give?
The IC50 was 12.5 nM.

What about the IC50 [2] of the same compound?
Its IC50 is 2.6 nM.

How did the IC50 [1, 3] turn out when Cc1nn(C)cc1-c1cccc(-c2ccc3c(c2)[C@@]2(COC(N)=N2)c2cc(C4=CCOCC4)ncc2O3)c1 [Example 255, (5S)-3-(3,6-dihydro-2H-pyran-4-yl)-7-(3-(1,3-dimethyl-1H-pyrazol-4-yl)phenyl)spiro[chromeno[2,3-c]pyridine-5,4′-[1,3]oxazol]-2′-amine] was run?
The IC50 was 565 nM.

What about the IC50 [2] of the same compound?
Its IC50 is 22.3 nM.

For Cn1cc(-c2cnc3c(c2)[C@@]2(COC(N)=N2)c2c(ccc(-c4cccnc4F)c2F)O3)cn1 [Example 357, (5S)-6-fluoro-7-(2-fluoro-3-pyridinyl)-3-(1-methyl-1H-pyrazol-4-yl)spiro[chromeno[2,3-b]pyridine-5,4′-[1,3]oxazol]-2′-amine], which IC50 [1, 3] is on record?
The IC50 was 2130 nM.

What about the IC50 [2] of the same compound?
The IC50 was 1050 nM.

Which IC50 [1, 3] does the source give for N#Cc1cccc(-c2ccc3c(c2)[C@@]2(COC(N)=N2)c2cc(C4=CCCOC4)nc(F)c2O3)c1 [Example 742, 3-((5S)-2′-amino-3-(5,6-dihydro-2H-pyran-3-yl)-1-fluorospiro[chromeno[2,3-c]pyridine-5,4′-[1,3]oxazol]-7-yl)benzonitrile] here?
Its IC50 is 8 nM.

And the IC50 [2]?
The IC50 was 0.4 nM.

With Cn1cc(-c2cc3c(cn2)Oc2ccc(-c4ccccc4)cc2[C@@]32COC(N)=N2)cn1 [Example 367, (5S)-3-(1-methyl-1H-pyrazol-4-yl)-7-phenylspiro[chromeno[2,3-c]pyridine-5,4′-[1,3]oxazol]-2′-amine] as the compound, how does the IC50 [1, 3] read?
The IC50 was 74 nM.

What about the IC50 [2] of the same compound?
Its IC50 is 13.3 nM.

Which IC50 [1, 4] does the source give for N#Cc1cnc2c(c1)C1(CSC(N)=N1)c1cc(-c3cccnc3F)ccc1O2 (stereo not shown) [Example 627, 2′-amino-7-(2-fluoro-3-pyridinyl)spiro[chromeno[2,3-b]pyridine-5,4′-[1,3]thiazole]-3-carbonitrile] here?
Its IC50 is 1590 nM.

What about the IC50 [2] of the same compound?
Its IC50 is 626 nM.

NC1=N[C@@]2(CS1)c1cc(-c3cccnc3F)ccc1Oc1ncc(Br)cc12 [Example 603, (5S)-3-bromo-7-(2-fluoro-3-pyridinyl)spiro[chromeno[2,3-b]pyridine-5,4′-[1,3]thiazol]-2′-amine] was tested. Which IC50 [1, 4] did it give?
Its IC50 is 188 nM.

What about the IC50 [2] of the same compound?
Its IC50 is 8.7 nM.

How did the IC50 [1, 3] turn out when COC(C)(C)COc1cnc2c(c1)[C@]1(COC(N)=N1)c1cc(-c3cc(Cl)ccc3F)ccc1O2 [Example 319, (5S)-7-(5-chloro-2-fluorophenyl)-3-(2-methoxy-2-methylpropoxy)spiro[chromeno[2,3-b]pyridine-5,4′-[1,3]oxazol]-2′-amine] was run?
The IC50 was 5.3 nM.

What about the IC50 [2] of the same compound?
The IC50 was 0.7 nM.

COc1cc(F)c2c(c1)[C@]1(COC(N)=N1)c1cc(-c3cncc(C(C)(F)F)c3)ccc1O2 [Example 1070, (4S)-7′-(5-(1,1-difluoroethyl)-3-pyridinyl)-4′-fluoro-2′-methoxyspiro[1,3-oxazole-4,9′-xanthen]-2-amine] was tested. Which IC50 [1, 3] did it give?
Its IC50 is 367 nM.

And the IC50 [2]?
The IC50 was 345 nM.

How did the IC50 [1, 3] turn out when NC1=N[C@]2(CO1)c1cc(C3=CCOCC3)ccc1Oc1ccc(-c3cncc(F)c3)cc12 [Example 193, (4R)-2′-(3,6-dihydro-2H-pyran-4-yl)-7′-(5-fluoro-3-pyridinyl)spiro[1,3-oxazole-4,9′-xanthen]-2-amine] was run?
The IC50 was 18 nM.

And the IC50 [2]?
The IC50 was 7.5 nM.

Which results are given for COCC1SC(N)=N[C@]12c1cc(-c3cccnc3F)ccc1Oc1c(F)cc(OC)cc12 (stereo partly drawn) [Example 1091, (4S)-4′-fluoro-7′-(2-fluoro-3-pyridinyl)-2′-methoxy-5-(methoxymethyl)spiro[1,3-thiazole-4,9′-xanthen]-2-amine]?
IC50 [1, 3]: > 10000 nM; IC50 [2]: 5070 nM

With COC(C)(C)C#Cc1ccc2c(c1)[C@@]1(CSC(N)=N1)c1cc(-c3cccnc3)cnc1O2 [Example 671, (5S)-7-(3-methoxy-3-methyl-1-butyn-1-yl)-3-(3-pyridinyl)spiro[chromeno[2,3-b]pyridine-5,4′-[1,3]thiazol]-2′-amine] as the compound, how does the IC50 [1, 4] read?
Its IC50 is 140 nM.

And the IC50 [2]?
The IC50 was 19 nM.

What does the source list for NC1=N[C@@]2(CO1)c1cc(OCc3cccnc3)ccc1Oc1ncc(Br)cc12 [Example 976, (5S)-3-bromo-7-(3-pyridinylmethoxy)spiro[chromeno[2,3-b]pyridine-5,4′-[1,3]oxazol]-2′-amine]?
IC50 [1, 3]: ≥ 10000 nM; IC50 [2]: 3810 nM

How did the IC50 [1, 3] turn out when CCn1cc(-c2cccc(-c3ccc4c(c3)[C@@]3(COC(N)=N3)c3cc(C5=CCOCC5)ncc3O4)c2)cn1 [Example 244, (5S)-3-(3,6-dihydro-2H-pyran-4-yl)-7-(3-(1-ethyl-1H-pyrazol-4-yl)phenyl)spiro[chromeno[2,3-c]pyridine-5,4′-[1,3]oxazol]-2′-amine] was run?
The IC50 was 326 nM.

And the IC50 [2]?
The IC50 was 53.7 nM.

How did the IC50 [1, 4] turn out when NC1=N[C@@]2(CS1)c1cc(-c3cncc(F)c3)ccc1Oc1ncc(Br)cc12 [Example 965, (5S)-3-bromo-7-(5-fluoro-3-pyridinyl)spiro[chromeno[2,3-b]pyridine-5,4′-[1,3]thiazol]-2′-amine] was run?
The IC50 was 785 nM.

And the IC50 [2]?
The IC50 was 23.3 nM.
